Publication PMC6857051, “Proliferative regulation of alveolar epithelial type 2 progenitor cells by human Scnn1d gene” (Theranostics, 2019)

Tests used:
human αβγ-ENaC = biological target: T1, human αβγ-ENaC (Homo sapiens, UniProt P37088+P51168+P51170); assay: Two-electrode voltage clamp of αβγ-ENaC expressed in Xenopus oocytes; assay type: cell-based; details: oocytes pre-treated, currents at -100 mV, n=5, Figure 3D
T1 construct: expressed in transfected cells; host or cells: Xenopus laevis oocytes injected with cRNA (pGEM HE vector)
T1 sequence (P37088 1-669): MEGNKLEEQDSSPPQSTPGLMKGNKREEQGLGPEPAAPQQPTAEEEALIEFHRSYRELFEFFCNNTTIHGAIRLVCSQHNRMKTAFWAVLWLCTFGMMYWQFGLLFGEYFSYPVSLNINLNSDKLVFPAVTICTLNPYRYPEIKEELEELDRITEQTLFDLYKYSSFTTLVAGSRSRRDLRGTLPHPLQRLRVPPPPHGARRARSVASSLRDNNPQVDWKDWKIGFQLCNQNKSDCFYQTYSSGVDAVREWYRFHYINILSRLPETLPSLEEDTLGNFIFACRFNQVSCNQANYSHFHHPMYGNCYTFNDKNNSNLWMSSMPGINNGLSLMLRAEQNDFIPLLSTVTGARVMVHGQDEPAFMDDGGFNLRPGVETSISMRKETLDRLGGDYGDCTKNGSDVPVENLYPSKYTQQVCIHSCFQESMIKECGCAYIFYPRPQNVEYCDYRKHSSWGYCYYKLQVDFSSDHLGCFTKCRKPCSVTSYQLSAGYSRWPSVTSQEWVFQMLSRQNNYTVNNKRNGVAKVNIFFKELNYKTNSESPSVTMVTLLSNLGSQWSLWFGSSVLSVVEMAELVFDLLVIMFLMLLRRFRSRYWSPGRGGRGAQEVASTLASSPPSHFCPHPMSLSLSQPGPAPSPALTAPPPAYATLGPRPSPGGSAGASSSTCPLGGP
T1 sequence (P51168 1-640): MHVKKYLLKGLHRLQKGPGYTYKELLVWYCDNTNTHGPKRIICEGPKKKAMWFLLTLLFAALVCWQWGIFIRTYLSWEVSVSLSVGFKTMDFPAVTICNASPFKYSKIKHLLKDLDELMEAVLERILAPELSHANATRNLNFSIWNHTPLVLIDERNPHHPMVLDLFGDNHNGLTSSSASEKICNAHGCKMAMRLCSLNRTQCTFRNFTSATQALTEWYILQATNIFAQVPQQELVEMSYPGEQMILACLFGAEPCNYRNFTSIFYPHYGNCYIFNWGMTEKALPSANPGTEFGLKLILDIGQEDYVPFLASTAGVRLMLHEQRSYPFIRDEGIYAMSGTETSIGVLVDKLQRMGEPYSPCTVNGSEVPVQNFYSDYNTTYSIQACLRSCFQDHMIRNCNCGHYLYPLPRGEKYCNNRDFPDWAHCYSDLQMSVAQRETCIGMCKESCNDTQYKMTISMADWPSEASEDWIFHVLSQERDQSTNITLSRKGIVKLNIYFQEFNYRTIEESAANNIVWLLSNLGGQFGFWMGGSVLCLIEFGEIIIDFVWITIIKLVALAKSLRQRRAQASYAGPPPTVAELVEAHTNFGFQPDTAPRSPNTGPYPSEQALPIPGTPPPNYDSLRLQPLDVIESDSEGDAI
T1 sequence (P51170 1-649): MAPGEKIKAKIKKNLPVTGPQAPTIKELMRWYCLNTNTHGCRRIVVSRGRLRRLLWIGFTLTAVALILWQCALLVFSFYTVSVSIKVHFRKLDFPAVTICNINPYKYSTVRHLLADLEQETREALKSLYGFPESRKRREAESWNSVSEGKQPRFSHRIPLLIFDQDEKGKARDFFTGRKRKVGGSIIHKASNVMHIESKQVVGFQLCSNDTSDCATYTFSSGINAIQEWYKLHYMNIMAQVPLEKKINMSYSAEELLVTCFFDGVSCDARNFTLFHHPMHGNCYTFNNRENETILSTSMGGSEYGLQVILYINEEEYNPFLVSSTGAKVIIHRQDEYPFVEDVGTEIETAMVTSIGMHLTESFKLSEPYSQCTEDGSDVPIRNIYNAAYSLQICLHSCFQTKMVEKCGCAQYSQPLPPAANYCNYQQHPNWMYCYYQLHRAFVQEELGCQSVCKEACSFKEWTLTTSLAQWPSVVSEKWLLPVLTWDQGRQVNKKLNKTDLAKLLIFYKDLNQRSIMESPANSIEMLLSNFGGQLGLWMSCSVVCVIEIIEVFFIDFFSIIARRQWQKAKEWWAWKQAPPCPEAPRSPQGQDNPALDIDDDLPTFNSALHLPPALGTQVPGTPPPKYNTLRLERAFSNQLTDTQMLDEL
Procedure: (§1) Cloning, in vitro transcription, and heterologous expression of δ802 ENaC and two-electrode voltage clamping assay. δ802 and other ENaC subunits were generated in human ENaC cDNAs cloned into a pGEM HE vector [4], [76]. cRNAs of human α, β, and γ ENaC were prepared as described previously. The stoichiometry of native ENaC complexes is unclear to date. Based on the studies in the last decade, several models have been proposed for αβγ ENaC channels: 1α1β1γ, 2α1β1γ, 3α3β3γ. Based on the EM structure of human αβγ ENaC [35], the currently acceptable model of human αβγ ENaC complexes is heterotrimeric (1α1β1γ). Thus we microinjected δ802:β:γ in a 1:1:1 subunit ratio. Oocytes were surgically removed from appropriately anesthetized adult female Xenopus laevis (Xenopus Express). Briefly, the ovarian tissue was removed from the frog under anesthesia by tricaine-S (Western Chemicals) through a small incision in the lower abdomen. Ovarian lobes were removed and digested in OR-2 calcium-free medium (in mM: 82.5 NaCl, 2.5 KCl, 1.0 MgCl2, 1.0 Na2HPO4, and 10.0 HEPES, pH 7.5) with the addition of 2 mg/ml collagenase (Roche, Indianapolis). Defolliculated oocytes were injected with ENaC cRNAs into the cytosol (25 ng per oocyte in 50 nl of RNase-free water) and incubated in regular OR-2 medium at 18°C. The two-electrode voltage-clamp technique was used to record whole-cell currents 48 h post injection. Oocytes were impaled with two electrodes filled with 3M KCl, having resistance of 0.5 - 2 MΩ. A TEV-200A voltage-clamp amplifier (Dagan) was used to clamp oocytes with concomitant recording of currents. Two reference electrodes were connected to the bath. The continuously perfused bathing solution was ND-96 medium (in mM: 96.0 NaCl, 1.0 MgCl2, 1.8 CaCl2, 2.5 KCl, and 5.0 HEPES, pH 7.5). Whole-cell currents were recorded as previously reported. Experiments were controlled by pCLAMP 10.7 software (Molecular Devices), and currents at -40 mV, -100 mV, and +80 mV were continuously monitored with data recorded at intervals of 10 sec. Data were sampled at the rate of 200 Hz and filtered at 50 Hz.

δ802αβγ-ENaC = biological target: T2, δ802αβγ-ENaC (Homo sapiens, UniProt P51168+P51170); assay: Two-electrode voltage clamp of δ802αβγ-ENaC expressed in Xenopus oocytes; assay type: cell-based; details: oocytes pre-treated, currents at -100 mV, n=5, Figure 3D
T2 construct: We characterized full-length human δ802-ENaC expressed in both Xenopus oocytes and humanized transgenic mice; expressed in transfected cells; host or cells: Xenopus laevis oocytes injected with cRNA (pGEM HE vector)
T2 sequence (P51168 1-640): T1 sequence (P51168 1-640)
T2 sequence (P51170 1-649): T1 sequence (P51170 1-649)
Procedure: as §1

[1] = test system: δ802- and γ-ENaC subunits; assay: Immunoblot of cleavage of tagged δ802- and γ-ENaC subunits in oocytes by serine proteases; assay type: biochemical, human; details: 10 μg/ml, 45 minutes at room temperature
Procedure: Figure 3 Activation of δ802-containing ENaC channels by serine proteases. (A) Activation of δ802βγ ENaC expressed in Xenopus oocytes by two-chain urokinase plasminogen activator (tc-uPA). ENaC activity was measured at the membrane potential of -100 mV at defined time points post incubation with 10 μg/ml tc-uPA. n = 9-15. mean ± s.e.m. * P<0.05 vs data at the zero minute (min). (B) Time course of stimulatory effects of plasmin on δ802βγ-ENaC activity. n=12. * P<0.05. (C) Identification of subunit responsible for plasmin activation. Fold of amiloride-sensitive current (ASI) of ENaC-associated current in the presence of plasmin over that in the absence of plasmin was computed for oocytes expressing δ802+β+γ (δβγ), δ802 alone (δ), δ802+β(δβ), and δ802+γ (δγ). n = 12-15. * P<0.05. (D) Inhibitory effects of α-13 peptide on δ802αβγ- (δαβγ) and αβγ-ENaC activity post treatment of plasmin and aprotinin. Currents (I) at -100 mV were compared in the absence of amiloride (basal, open bar), presence of α-13 peptide (α13, closed bar), and amiloride (amil, grey bar). n=5. * P<0.05 vs basal currents, & P < 0.05 vs those in the presence of α-13 peptide. (E) Fractions of α-13 sensitive currents in cells pre-treated with plasmin and aprotinin. n=8. Control, without pre-treatment. (F) Cleavage of V5-tagged δ802- and γ-ENaC subunits by serine proteases. NI, non-injected oocytes as negative controls for ENaC expression. Oocytes incubated with chymotrypsin (CT, 10 μg/ml), plasmin (PI, 10 μg/ml) for 45 minutes at room temperature. Cells treated with the same volume of saline (‑) were controls for serine proteases.

Row | Substance | effect of pre-treatment on αβγ-ENaC activity (human αβγ-ENaC) | effect of pre-treatment on δ802αβγ-ENaC activity (δ802αβγ-ENaC) | cleavage of δ802 subunit [1]
1 | aprotinin | did not alter the current amplitude significantly | did not alter the current amplitude significantly | –
2 | chymotrypsin | – | – | Neither chymotrypsin nor plasmin nor endogenous furin cleaved the δ802 subunit
